Measurements reported in PubChem BioAssay (NCI).
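In this assay, cells in 96-well plates receive the compound at five concentrations for 48 hours. Endpoints are linearly interpolated between the surrounding concentrations. TGI: concentration producing complete growth inhibition.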

Experiments:
Experiment in all cases: NCI-60 cell line screen, 48 h
[1] = system: 786-0 renal
[2] = system: A498 renal
[3] = system: A549 NSCLC
[4] = system: ACHN renal
[5] = system: BT-549 breast
[6] = system: CAKI-1 renal
[7] = system: CCRF-CEM leukemia
[8] = system: COLO 205 colon
[9] = system: DU-145 prostate
[10] = system: EKVX NSCLC
[11] = system: HCC-2998 colon
[12] = system: HCT-116 colon
[13] = system: HCT-15 colon
[14] = system: HOP-62 NSCLC
[15] = system: HOP-92 NSCLC
[16] = system: HS 578T breast
[17] = system: HT29 colon
[18] = system: IGROV1 ovarian
[19] = system: K-562 leukemia
[20] = system: KM12 colon
[21] = system: LOX IMVI melanoma
[22] = system: M14 melanoma
[23] = system: MALME-3M melanoma
[24] = system: MCF7 breast
[25] = system: MDA-MB-231 breast
[26] = system: MDA-MB-435
[27] = system: MDA-N
[28] = system: MOLT-4 leukemia
[29] = system: NCI-H226 lung
[30] = system: NCI-H23 lung
[31] = system: NCI-H460 lung
[32] = system: NCI-H522 lung
[33] = system: NCI/ADR-RES ovarian
[34] = system: OVCAR-3 ovarian
[35] = system: OVCAR-4 ovarian
[36] = system: OVCAR-5 ovarian
[37] = system: OVCAR-8 ovarian
[38] = system: PC-3 prostate
[39] = system: RPMI-8226 leukemia
[40] = system: RXF 393 renal
[41] = system: SF-268 CNS
[42] = system: SF-295 CNS
[43] = system: SK-MEL-2 melanoma
[44] = system: SK-MEL-28 melanoma
[45] = system: SK-MEL-5 melanoma
[46] = system: SK-OV-3 ovarian
[47] = system: SN12C renal
[48] = system: SNB-19 CNS
[49] = system: SW-620 colon
[50] = system: T-47D breast
[51] = system: TK-10 renal
[52] = system: U251 CNS
[53] = system: UACC-257 melanoma
[54] = system: UACC-62 melanoma
[55] = system: UO-31 renal
[56] = system: HL-60(TB) leukemia
[57] = system: SF-539 CNS
[58] = system: SNB-75 CNS

## CCc1ccc(CCN2CCCCC2)nc1
[1]
  TGI: > 100 µM
[2]
  TGI: > 100 µM
[3]
  TGI: > 100 µM
[4]
  TGI: > 100 µM
[5]
  TGI: > 100 µM
[6]
  TGI: > 100 µM
[7]
  TGI: > 100 µM
[8]
  TGI: > 100 µM
[9]
  TGI: > 100 µM
[10]
  TGI: > 100 µM
[11]
  TGI: > 100 µM
[12]
  TGI: > 100 µM
[13]
  TGI: > 100 µM
[14]
  TGI: > 100 µM
[15]
  TGI: > 100 µM
[16]
  TGI: > 100 µM
[17]
  TGI: > 100 µM
[18]
  TGI: > 100 µM
[19]
  TGI: > 100 µM
[20]
  TGI: > 100 µM
[21]
  TGI: > 100 µM
[22]
  TGI: > 100 µM
[23]
  TGI: > 100 µM
[24]
  TGI: > 100 µM
[25]
  TGI: > 100 µM
[26]
  TGI: > 100 µM
[27]
  TGI: > 100 µM
[28]
  TGI: > 100 µM
[29]
  TGI: > 100 µM
[30]
  TGI: > 100 µM
[31]
  TGI: > 100 µM
[32]
  TGI: > 100 µM
[33]
  TGI: > 100 µM
[34]
  TGI: > 100 µM
[35]
  TGI: > 100 µM
[36]
  TGI: > 100 µM
[37]
  TGI: > 100 µM
[38]
  TGI: > 100 µM
[39]
  TGI: > 100 µM
[40]
  TGI: > 100 µM
[41]
  TGI: > 100 µM
[42]
  TGI: > 100 µM
[43]
  TGI: > 100 µM
[44]
  TGI: > 100 µM
[45]
  TGI: > 100 µM
[46]
  TGI: > 100 µM
[47]
  TGI: > 100 µM
[48]
  TGI: > 100 µM
[49]
  TGI: > 100 µM
[50]
  TGI: > 100 µM
[51]
  TGI: > 100 µM
[52]
  TGI: > 100 µM
[53]
  TGI: > 100 µM
[54]
  TGI: > 100 µM
[55]
  TGI: > 100 µM

## CC(=O)O[C@H]1C(=O)[C@]2(C)[C@@H](OC(=O)OCCC(O)CO)C[C@H]3OC[C@@]3(OC(C)=O)[C@H]2[C@H](OC(=O)c2ccccc2)[C@]2(O)C[C@H](OC(=O)[C@H](O)[C@@H](NC(=O)c3ccccc3)c3ccccc3)C(C)=C1C2(C)C (stereo partly specified)
[1]
  TGI: 6.05 µM
[2]
  TGI: 21.6 µM
[3]
  TGI: > 100 µM
[4]
  TGI: > 100 µM
[5]
  TGI: 15.9 µM
[6]
  TGI: > 42.3 µM
[7]
  TGI: 0.0462 µM
[9]
  TGI: 0.0657 µM
[10]
  TGI: > 100 µM
[11]
  TGI: 0.32 µM
[12]
  TGI: 5.65 µM
[13]
  TGI: > 100 µM
[56]
  TGI: < 0.0106 µM
[14]
  TGI: 21.6 µM
[15]
  TGI: 25.2 µM
[16]
  TGI: 0.479 µM
[17]
  TGI: 0.526 µM
[18]
  TGI: 19.8 µM
[19]
  TGI: > 100 µM
[21]
  TGI: 20.4 µM
[22]
  TGI: 7.16 µM
[23]
  TGI: 16.3 µM
[24]
  TGI: > 35 µM
[25]
  TGI: 3.7 µM
[26]
  TGI: < 0.01 µM
[27]
  TGI: < 0.01 µM
[28]
  TGI: 12.7 µM
[29]
  TGI: 0.576 µM
[30]
  TGI: 21.7 µM
[31]
  TGI: 2.05 µM
[32]
  TGI: < 0.01 µM
[33]
  TGI: > 100 µM
[34]
  TGI: 0.0932 µM
[35]
  TGI: > 94.3 µM
[36]
  TGI: > 36.6 µM
[38]
  TGI: > 36.2 µM
[40]
  TGI: 17.9 µM
[41]
  TGI: 34.9 µM
[42]
  TGI: 1.12 µM
[57]
  TGI: 0.0297 µM
[43]
  TGI: 46.8 µM
[45]
  TGI: 13.1 µM
[47]
  TGI: 19.8 µM
[48]
  TGI: 88.4 µM
[58]
  TGI: 0.158 µM
[49]
  TGI: > 46.4 µM
[51]
  TGI: > 61.2 µM
[52]
  TGI: 18 µM
[53]
  TGI: 21.4 µM
[54]
  TGI: 24.8 µM
[55]
  TGI: > 100 µM
